Test results from ChEMBL document CHEMBL3352739, “Comparative in vivo evaluation of polyalkoxy substituted 4H-chromenes and oxa-podophyllotoxins as microtubule destabilizing agents in the phenotypic sea urchin embryo assay” (2014).

How the values were obtained:
[1] = Growth inhibition of human COLO205 cells after 48 hrs by sulforhodamine B assay; format: functional; conditions: COLO 205, 48 h
Paracentrotus lividus [2] = assay: Antimitotic microtubule destabilizing activity in Paracentrotus lividus L embryos assessed as induction of cleavage alteration
MCF7 = assay: Growth inhibition of human MCF7 cells after 48 hrs by sulforhodamine B assay; format: functional; conditions: MCF7, 48 h
[3] = Growth inhibition of human PC3 cells after 48 hrs by sulforhodamine B assay; format: functional; conditions: PC-3, 48 h
Paracentrotus lividus [4] = assay: Antimitotic microtubule destabilizing activity in Paracentrotus lividus L embryos assessed as induction of embryo spinning
HL-60(TB) = assay: Growth inhibition of human HL-60(TB) cells after 48 hrs by sulforhodamine B assay; format: functional; conditions: HL-60, 48 h
TK-10 = assay: Growth inhibition of human TK10 cells after 48 hrs by sulforhodamine B assay; format: functional; conditions: TK-10, 48 h
[5] = Growth inhibition of human RXF393 cells after 48 hrs by sulforhodamine B assay; format: functional; conditions: RXF 393, 48 h
[6] = Growth inhibition of human Hs 578T cells after 48 hrs by sulforhodamine B assay; format: functional
DU-145 = assay: Growth inhibition of human DU145 cells after 48 hrs by sulforhodamine B assay; format: functional; conditions: DU-145, 48 h
SF-268 = assay: Growth inhibition of human SF268 cells after 48 hrs by sulforhodamine B assay; format: functional; conditions: SF-268, 48 h
A549 = assay: Growth inhibition of human A549/ATCC cells after 48 hrs by sulforhodamine B assay; format: functional; conditions: A549, 48 h
HT-29 = assay: Growth inhibition of human HT-29 cells after 48 hrs by sulforhodamine B assay; format: functional; conditions: HT-29, 48 h
M14 = assay: Growth inhibition of human M14 cells after 48 hrs by sulforhodamine B assay; format: functional; conditions: M14, 48 h
KM12 = assay: Growth inhibition of human KM12 cells after 48 hrs by sulforhodamine B assay; format: functional; conditions: KM12, 48 h
T47D = assay: Growth inhibition of human T47D cells after 48 hrs by sulforhodamine B assay; format: functional
NCI-H522 = assay: Growth inhibition of human NCI-H522 cells after 48 hrs by sulforhodamine B assay; format: functional; conditions: NCI-H522, 48 h
[7] = Growth inhibition of human UO31 cells after 48 hrs by sulforhodamine B assay; format: functional; conditions: UO-31, 48 h
CAKI-1 = assay: Growth inhibition of human CAKI-1 cells after 48 hrs by sulforhodamine B assay; format: functional; conditions: CAKI-1, 48 h
IGROV-1 = assay: Growth inhibition of human IGROV1 cells after 48 hrs by sulforhodamine B assay; format: functional; conditions: IGROV-1, 48 h
[8] = Growth inhibition of human RPMI8226 cells after 48 hrs by sulforhodamine B assay; format: functional; conditions: RPMI-8226, 48 h
Paracentrotus lividus [9] = assay: Antimitotic microtubule destabilizing activity in Paracentrotus lividus L embryos assessed as induction of cleavage arrest
786-0 = assay: Growth inhibition of human 786-0 cells after 48 hrs by sulforhodamine B assay; format: functional; conditions: 786-0, 48 h
[10] = Growth inhibition of human SF295 cells after 48 hrs by sulforhodamine B assay; format: functional; conditions: SF-295, 48 h
CCRF-CEM = assay: Growth inhibition of human CCRF-CEM cells after 48 hrs by sulforhodamine B assay; format: functional
NCI-H460 = assay: Growth inhibition of human NCI-H460 cells after 48 hrs by sulforhodamine B assay; format: functional; conditions: NCI-H460, 48 h
NCI-H322M = assay: Growth inhibition of human NCI-H322M cells after 48 hrs by sulforhodamine B assay; format: functional
MDA-MB-231 = assay: Growth inhibition of human MDA-MB-231 cells after 48 hrs by sulforhodamine B assay; format: functional; conditions: MDA-MB-231, 48 h
SNB-75 = assay: Growth inhibition of human SNB75 cells after 48 hrs by sulforhodamine B assay; format: functional; conditions: SNB-75, 48 h
[11] = Growth inhibition of human BT549 cells after 48 hrs by sulforhodamine B assay; format: functional; conditions: BT-549, 48 h
[12] = Growth inhibition of human UACC62 cells after 48 hrs by sulforhodamine B assay; format: functional; conditions: UACC-62, 48 h
[13] = Growth inhibition of human SF539 cells after 48 hrs by sulforhodamine B assay; format: functional; conditions: SF-539, 48 h
ACHN = assay: Growth inhibition of human ACHN cells after 48 hrs by sulforhodamine B assay; format: functional
[14] = Cytotoxicity against human NCI60 cells; format: functional
SN12C = assay: Growth inhibition of human SN12C cells after 48 hrs by sulforhodamine B assay; format: functional
[15] = Growth inhibition of human OVCAR5 cells after 48 hrs by sulforhodamine B assay; format: functional; conditions: OVCAR-5, 48 h
MDA-MB-468 = assay: Growth inhibition of human MDA-MB-468 cells after 48 hrs by sulforhodamine B assay; format: functional; conditions: MDA-MB-468, 48 h
[16] = Growth inhibition of human HCT116 cells after 48 hrs by sulforhodamine B assay; format: functional; conditions: HCT-116, 48 h
MDA-MB-435 = assay: Growth inhibition of human MDA-MB-435 cells after 48 hrs by sulforhodamine B assay; format: functional; conditions: MDA-MB-435, 48 h
SK-MEL-5 = assay: Growth inhibition of human SK-MEL-5 cells after 48 hrs by sulforhodamine B assay; format: functional; conditions: SK-MEL-5, 48 h
[17] = Growth inhibition of human HCT15 cells after 48 hrs by sulforhodamine B assay; format: functional; conditions: HCT-15, 48 h
SR = assay: Growth inhibition of human SR cells after 48 hrs by sulforhodamine B assay; format: functional
[18] = Growth inhibition of human UACC257 cells after 48 hrs by sulforhodamine B assay; format: functional; conditions: UACC-257, 48 h
NCI-H23 = assay: Growth inhibition of human NCI-H23 cells after 48 hrs by sulforhodamine B assay; format: functional; conditions: NCI-H23, 48 h
NCI-H226 = assay: Growth inhibition of human NCI-H226 cells after 48 hrs by sulforhodamine B assay; format: functional; conditions: NCI-H226, 48 h
SNB-19 = assay: Growth inhibition of human SNB19 cells after 48 hrs by sulforhodamine B assay; format: functional; conditions: SNB-19, 48 h
SK-OV-3 = assay: Growth inhibition of human SKOV3 cells after 48 hrs by sulforhodamine B assay; format: functional; conditions: SK-OV-3, 48 h
HOP-62 = assay: Growth inhibition of human HOP62 cells after 48 hrs by sulforhodamine B assay; format: functional; conditions: HOP-62, 48 h
K562 = assay: Growth inhibition of human K562 cells after 48 hrs by sulforhodamine B assay; format: functional; conditions: K562, 48 h
A498 = assay: Growth inhibition of human A498 cells after 48 hrs by sulforhodamine B assay; format: functional; conditions: A498, 48 h
[19] = Growth inhibition of human NCI-ADR-RES cells after 48 hrs by sulforhodamine B assay; format: functional
[20] = Growth inhibition of human OVCAR8 cells after 48 hrs by sulforhodamine B assay; format: functional; conditions: OVCAR-8, 48 h
[21] = Growth inhibition of human H1299 cells after 48 hrs by sulforhodamine B assay; format: functional; conditions: NCI-H1299, 48 h
SW-620 = assay: Growth inhibition of human SW620 cells after 48 hrs by sulforhodamine B assay; format: functional; conditions: SW-620, 48 h
[22] = Growth inhibition of human HCC2998 cells after 48 hrs by sulforhodamine B assay; format: functional; conditions: HCC 2998, 48 h
[23] = Growth inhibition of human MOLT4 cells after 48 hrs by sulforhodamine B assay; format: functional; conditions: MOLT-4, 48 h
[24] = Growth inhibition of human OVCAR4 cells after 48 hrs by sulforhodamine B assay; format: functional; conditions: OVCAR-4, 48 h
[25] = Growth inhibition of human OVCAR3 cells after 48 hrs by sulforhodamine B assay; format: functional; conditions: OVCAR-3, 48 h

COc1cccc(C2C(C#N)=C(N)Oc3cc(OC)ccc32)c1 (stereo not drawn)
GI50 [1]: 45.2 nM
EC (Paracentrotus lividus [2]): 0.002 µM
GI50 (MCF7): 17.1 nM
GI50 [3]: 35.7 nM
EC (Paracentrotus lividus [4]): 0.05 µM
GI50 (HL-60(TB)): 25 nM
GI50 (TK-10): 11800 nM
GI50 [5]: 26 nM
GI50 [6]: 28.3 nM
GI50 (DU-145): 35.1 nM
GI50 (SF-268): 73.5 nM
GI50 (A549): 45.2 nM
GI50 (HT-29): 37 nM
GI50 (M14): 26.8 nM
GI50 (KM12): 30.3 nM
GI50 (T47D): 43.7 nM
GI50 (NCI-H522): < 10 nM
GI50 [7]: 57.2 nM
GI50 (CAKI-1): 42.6 nM
GI50 (IGROV-1): 48.2 nM
GI50 [8]: 37.4 nM
EC (Paracentrotus lividus [9]): 0.01 µM
GI50 (786-0): 50.7 nM
GI50 [10]: 25.4 nM
GI50 (CCRF-CEM): 31.2 nM
GI50 (NCI-H460): 36.4 nM
GI50 (NCI-H322M): 63.1 nM
GI50 (MDA-MB-231): 54.6 nM
GI50 (SNB-75): 27 nM
GI50 [11]: 87.2 nM
GI50 [12]: 70.5 nM
GI50 [13]: 25 nM
GI50 (ACHN): 120 nM
GI50 [14]: 55 nM
GI50 (SN12C): 69.3 nM
GI50 [15]: 66.2 nM
GI50 (MDA-MB-468): 35 nM
GI50 [16]: 47.9 nM
GI50 (MDA-MB-435): < 10 nM
GI50 (SK-MEL-5): 50.3 nM
GI50 [17]: 36.6 nM
GI50 (SR): 20.2 nM
GI50 [18]: 12400 nM
GI50 (NCI-H23): 40 nM
GI50 (NCI-H226): 835 nM
GI50 (SNB-19): 3770 nM
GI50 (SK-OV-3): 34 nM
GI50 (HOP-62): 41.6 nM
GI50 (K562): 19.7 nM
GI50 (A498): 18.6 nM
GI50 [19]: 14.9 nM
GI50 [20]: 51.4 nM
GI50 [21]: 55 nM
GI50 (SW-620): 38.1 nM
GI50 [22]: 51.5 nM
GI50 [23]: 55.7 nM
GI50 [24]: 535 nM
GI50 [25]: 27.8 nM
